# Test results from patent publication US10799494B2, “Combination of respiratory electron transport chain inhibitors with a cytochrome bd inhibitor” (priority 2015, dated 2020).
# Where “and” joins values, the source holds several entries; their conditions need not be identical. Identical values can stand only once.
# Tests used:
# [1] = molecular target: recombinant M. tuberculosis bd-I (Mycobacterium tuberculosis, UniProt L7N662); assay: Steady-state kinetics of quinol:Mtb bd-I activity with artificial quinol substrates; settings: for specific catalytic activity: FIG. 1, measured at 283 nm
# M. tuberculosis H37Rv = M. tuberculosis H37Rv growth inhibition screen at fixed 5 μM; assay type: cell-based, Mycobacterium tuberculosis; settings: 5 μM compound; for activity at 5 µM: Mycobacterium tuberculosis, H37RV, aerobic, read-out: Growth of M. tuberculosis H37Rv (aerobic) at 5 μM of [compounds]
# [2] = molecular target: M. tuberculosis cytochrome bd-I (Mycobacterium tuberculosis, UniProt L7N662); assay type: biochemical
# [3] = system: Mycobacterium tuberculosis (Mtb) H37Rv; assay: MGIT growth inhibition assay, time to positivity; assay type: cell-based
# [4] = Table 6, compounds at 5x IC90, drug free control 11, followed to 74 days
# [5] = Table 8, WDH-2G-6 3 μM, MTC420 5.5 μM, lansoprazole sulphide 26.5 μM, TMC207 250 nM, media control 10
# Chain of recombinant M. tuberculosis bd-I (L7N662 1-485): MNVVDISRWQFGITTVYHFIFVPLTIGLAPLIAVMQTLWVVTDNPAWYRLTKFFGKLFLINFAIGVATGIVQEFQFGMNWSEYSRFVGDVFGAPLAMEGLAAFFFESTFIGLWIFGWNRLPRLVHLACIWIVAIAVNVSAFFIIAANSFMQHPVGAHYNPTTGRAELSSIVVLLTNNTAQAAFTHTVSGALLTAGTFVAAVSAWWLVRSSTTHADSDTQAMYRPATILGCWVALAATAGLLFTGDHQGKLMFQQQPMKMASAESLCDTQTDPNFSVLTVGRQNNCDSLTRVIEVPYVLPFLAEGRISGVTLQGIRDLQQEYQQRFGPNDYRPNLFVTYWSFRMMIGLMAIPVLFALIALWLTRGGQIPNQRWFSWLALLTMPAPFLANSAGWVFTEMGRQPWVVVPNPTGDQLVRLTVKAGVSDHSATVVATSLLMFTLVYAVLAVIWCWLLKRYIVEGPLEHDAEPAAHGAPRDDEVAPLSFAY
# Chain of M. tuberculosis cytochrome bd-I (L7N662 1-485): as above
molecule,measurement,setting,value
"COc1c(O)c(C)c(C/C=C(\C)CCC=C(C)C)c(O)c1OC [Compound Q2H2, ubiquinol-2]",specific catalytic activity ± SEM,[1],8.7 ± 2.5 µmol/min/mg
same,specific catalytic activity,[1],8.65 ± 2.5 µmol/min/mg
"CCOC(=O)c1c(-c2ccc(Cc3ccc(OC(F)(F)F)cc3)cc2)[nH]c2ccccc2c1=O [GN-1710, Ethyl 4-oxo-2-(4-(4-(trifluoromethoxy)benzyl)phenyI)-1,4-dihydroquinoline-3-carboxylate]",activity at 5 µM,M. tuberculosis H37Rv,100%
"Cc1c(-c2ccc(-c3ccc(C(F)(F)F)nc3)nc2)[nH]c2ccccc2c1=O [PG-128, 3-Methyl-2-(6′-(trifluoromethyl)-[2,3′-bipyridin]-5-yl)quinolin-4(1H)-one]",activity at 5 µM,M. tuberculosis H37Rv,95.6%
"COc1ccc2[nH]c(-c3ccc(Cc4ccc(OC(F)(F)F)cc4)cc3)c(C)c(=O)c2c1 [SCR-05-03, 6-Methoxy-3-methyl-2-(4-(4-(trifluoromethoxy)benzyl)phenyl)quinolin-4(1H)-one]",inhibition @ 1 uM (% of cntls),[2],60.9 % of cntls
"Cc1c(-c2ccc(-c3ccccc3C(F)(F)F)cc2)[nH]c2ccccc2c1=O [SL-2-36, 3-Methyl-2-(2′-(trifluoromethyl)-[1,1′-biphenyl]-4-yl)quinolin-4(1H)-one]",inhibition @ 1 uM (% of cntls),[2],90.5 % of cntls
"Cc1c(-c2ccc(Oc3ccc(OC(F)(F)F)cc3)nc2)[nH]c2ccccc2c1=O [CK-3-22, 3-Methyl-2-(6-(4-(trifluoromethoxy)phenoxy)pyridin-3-yl)quinolin-4(1H)-one]",inhibition @ 1 uM (% of cntls),[2],62.8 % of cntls
"CCCCCCCCCCc1c(C)c(O)c(OC)c(OC)c1O [dQH2, decylubiquinol]",specific catalytic activity ± SEM,[1],9.0 ± 0.2 µmol/min/mg and 5.1 ± 0.3 µmol/min/mg and 6.2 ± 0.5 µmol/min/mg
same,specific catalytic activity,[1],5.1 ± 0.29 µmol/min/mg
"O=c1c(-c2ccc(Oc3ccc(OC(F)(F)F)cc3)cc2)c(CO)[nH]c2ccccc12 [PG208, 2-(Hydroxymethyl)-3-(4-(4-(trifluoromethoxy)phenoxy)phenyl)quinolin-4(1H)-one]",inhibition @ 1 uM (% of cntls),[2],66.7 % of cntls
"Cc1[nH]c2ccccc2c(=O)c1-c1ccc(Oc2ccc(OC(F)(F)F)cc2)cc1 [PG-203, 2-Methyl-3-(4-(4-(trifluoromethoxy)phenoxy)phenyl)quinolin-4(1H)-one]",activity at 5 µM,M. tuberculosis H37Rv,100%
"Cc1c(-c2ccc(Cc3cccc(OCCN4CCOCC4)c3)cc2)[nH]c2ccccc2c1=O [PG201, 3-Methyl-2-(4-(3-(2-morpholinoethoxy)benzyl)phenyl)quinolin-4(1H)-one]",inhibition @ 1 uM (% of cntls),[2],68.7 % of cntls
"Cc1c(-c2ccc(-c3ccccc3F)cc2)[nH]c2ccccc2c1=O [SL-3-3, 2-(2′-Fluoro-[1,1′-biphenyl]-4-yl)-3-methylquinolin-4(1H)-one]",inhibition @ 1 uM (% of cntls),[2],62.2 % of cntls
"COc1ccc(Cc2ccc(-c3[nH]c4ccccc4c(=O)c3C)cc2)cc1 [CK-2-96, 2-(4-(4-Methoxybenzyl)phenyI)-3-methylquinolin-4(1H)-one]",inhibition @ 1 uM (% of cntls),[2],85.7 % of cntls
3-Methyl-2-(1-(4-(trifluoromethoxy)phenethyl)-1H-pyrazol-4-yl)quinolin-4(1H)-one [WDH-2R-4],inhibition @ 1 uM (% of cntls),[2],56.2 % of cntls
same,IC50,"[2]; additional compounds, […]",380 nM
"Cc1c(-c2ccc(N3CCCCC3)cc2)[nH]c2ccccc2c1=O [RKA-307, 3-Methyl-2-(4-(piperidin-1-yl)phenyl)quinolin-4(1H)-one]",activity at 5 µM,M. tuberculosis H37Rv,1.8%
CO[C@H]1/C=C/O[C@@]2(C)Oc3c(C)c(O)c4c(O)c(c(/C=N/N5CCN(C)CC5)c(O)c4c3C2=O)NC(=O)/C(C)=C\C=C\[C@H](C)[C@H](O)[C@@H](C)[C@@H](O)[C@@H](C)[C@H](OC(C)=O)[C@@H]1C [Rifampicin],Time to Positivity,[3]; [4],No effect at 74 days
"Cc1c(OCC(F)(F)F)ccnc1CSc1nc2ccccc2[nH]1 [Lansoprazole sulphide, lansoprazole sulfide]",Time to Positivity,[3]; [5],13 days
same,Time to positivity (TtP),"[3]; lansoprazole sulfide 26.5 μM, CK-2-63 35 μM, drug-free control 10 days",13 days
"CC(C)c1c(-c2cnn(Cc3ccc(OC(F)(F)F)cc3)c2)[nH]c2ccccc2c1=O [WDH-2G-6, 3-Isopropyl-2-(1-(4-(trifluoromethoxy)benzyl)-1H-pyrazol-4-yl)quinolin-4(1H)-one]",inhibition @ 1 uM (% of cntls),[2],81.6 % of cntls
same,Time to Positivity,[3]; [5],10 days
"Cc1c(-c2ccc(Oc3ccc(F)cc3)nc2)[nH]c2ccccc2c1=O [CK-3-14, 2-(6-(4-Fluorophenoxy)pyridin-3-yl)-3-methylquinolin-4(1H)-one]",activity at 5 µM,M. tuberculosis H37Rv,100%
"Cc1c(-c2cccc(Cc3ccc(OC(F)(F)F)cc3)c2)[nH]c2ccccc2c1=O [CK-2-58, 3-Methyl-2-(3-(4-(trifluoromethoxy)benzyl)phenyl)quinolin-4(1H)-one]",inhibition @ 1 uM (% of cntls),[2],82.3 % of cntls
"COc1c(O)c(C)c(CC=C(C)C)c(O)c1OC [Compound Q1H2, ubiquinol-1]",specific catalytic activity,[1],5.26 ± 0.52 µmol/min/mg
Cc1ccc2nc(C)c(C(=O)NCc3ccc(Oc4ccc(F)cc4)cc3)n2c1 [AWE 402],Time to Positivity,[3]; [4],15 days
same,Time to Positivity,[3]; [5],13 days
"Cc1c(-c2ccc(-c3ccc(C(F)(F)F)cc3)nc2)[nH]c2ccccc2c1=O [RKA 142, 3-Methyl-2-(6-(4-(trifluoromethyl)phenyl)pyridin-3-yl)quinolin-4(1H)-one]",inhibition @ 1 uM (% of cntls),[2],>50 % of cntls
"O=c1cc(-c2ccc(Cc3ccc(OC(F)(F)F)cc3)cc2)[nH]c2cc(O)c(F)cc12 [CK-3-68, 6-Fluoro-7-hydroxy-2-(4-(4-(trifluoromethoxy)benzyl)phenyl)quinolin-4(1H)-one]",inhibition @ 1 uM (% of cntls),[2],71.7 % of cntls
"COc1ccc2c(=O)c(C)c(-c3ccc(N4CCCCC4)cc3)[nH]c2c1 [RKA-310, 7-methoxy-3-methyl-2-(4-(piperidin-1-yl)phenyl)quinolin-4(1H)-one]",Growth of M. tuberculosis H37Rv (aerobic) at 5 μM of [compounds],M. tuberculosis H37Rv,No growth
"COc1c(C)c(-c2ccc(Cc3ccccc3)cc2)nc2ccccc12 [CK-3-23, 2-(4-Benzylphenyl)-4-methoxy-3-methylquinoline]",activity at 5 µM,M. tuberculosis H37Rv,6.6%
"Cc1c(-c2ccc(Cc3ccc(OC(F)(F)F)cc3)cc2)[nH]c2c(O)cccc2c1=O [SCR-06-03D, 8-Hydroxy-3-methyl-2-(4-(4-(trifluoromethoxy)benzyl)phenyl)quinolin-4(1H)-one]",inhibition @ 1 uM (% of cntls),[2],73.1 % of cntls
"Cc1c(-c2ccc(OC3CCC(F)(F)CC3)cc2)[nH]c2ccccc2c1=O [PG105, 2-(4-((4,4-Difluorocyclohexyl)oxy)phenyI)-3-methylquinolin-4(1H)-one]",inhibition @ 1 uM (% of cntls),[2],71.5 % of cntls
"Cc1c(-c2ccc(Oc3cccc(OCCN4CCOCC4)c3)cc2)[nH]c2ccccc2c1=O [CK-4-15, 3-Methyl-2-(4-(3-(2-morpholinoethoxy)phenoxy)phenyl)quinolin-4(1H)-one]",inhibition @ 1 uM (% of cntls),[2],66.6 % of cntls
"CCOC(=O)c1c(-c2ccc(-c3ccc(OC(F)(F)F)cc3)cc2)[nH]c2ccccc2c1=O [WDH-1V-10, Ethyl 4-oxo-2-(4′-(trifluoromethoxy)-[1,1′-biphenyl]-4-yl)-1,4-dihydroquinoline-3-carboxylate]",inhibition @ 1 uM (% of cntls),[2],79.4 % of cntls
"CCOC(=O)c1c(-c2ccc(-c3ccc(Cl)cc3)cc2)[nH]c2ccccc2c1=O [WDH-1U-10, Ethyl 2-(4′-chloro-[1,1′-biphenyl]-4-yl)-4-oxo-1,4-dihydroquinoline-3-carboxylate]",activity at 5 µM,M. tuberculosis H37Rv,82.2%
"Cc1c(-c2cnn(Cc3ccc(OC(F)(F)F)cc3)c2)[nH]c2ccccc2c1=O [WDH-2A-9, 3-Methyl-2-(1-(4-(trifluoromethoxy)benzyl)-1H-pyrazol-4-yl)quinolin-4(1H)-one]",activity at 5 µM,M. tuberculosis H37Rv,97.4%
"NNC(=O)c1ccncc1 [INH, Isoniazid]",Time to Positivity,[3]; [4],No effect at 74 days
same,Time to Positivity,"[3]; Table 7 / FIG. 9, compounds at 5x IC90, 7.5×10^5 Mtb cells per tube, drug free control 8, followed to 80 days",No effect
"Cc1c(-c2ccc(N3CCCCC3)cc2)[nH]c2cc(F)cc(F)c2c1=O [MTD-403, 5,7-Difluoro-3-methyl-2-(4-(piperidin-1-yl)phenyl)quinolin-4(1H)-one]",Growth of M. tuberculosis H37Rv (aerobic) at 5 μM of [compounds],M. tuberculosis H37Rv,No growth
"COc1ccc2c(=O)c(C)c(-c3ccc(Oc4ccc(OC(F)(F)F)cc4)nc3)[nH]c2c1 [RKA-259, 7-Methoxy-3-methyl-2-(6-(4-(trifluoromethoxy)phenoxy)pyridin-3-yl)quinolin-4(1H)-one]",activity at 5 µM,M. tuberculosis H37Rv,12.6%
"O=c1cc(-c2ccc(Cc3ccc(OC(F)(F)F)cc3)cc2)n(O)c2ccccc12 [RKA-73, 1-Hydroxy-2-(4-(4-(trifluoromethoxy)benzyl)phenyl)quinolin-4(1H)-one]",activity at 5 µM,M. tuberculosis H37Rv,100%
"CCOC(=O)c1c(-c2ccc(-c3ccc(Cl)cc3)cc2)[nH]c2ccccc2c1=O [WDH-1V-9, Ethyl 2-(4′-chloro-[1,1′-biphenyl]-4-yl)-4-oxo-1,4-dihydroquinoline-3-carboxylate]",inhibition @ 1 uM (% of cntls),[2],87.5 % of cntls
"Cc1c(-c2ccc(Cc3ccc(OC(F)(F)F)cc3)cc2)[nH]c2cc(O)ccc2c1=O [SCR-45-01D, 7-Hydroxy-3-methyl-2-(4-(4-(trifluoromethoxy)benzyl)phenyl)quinolin-4(1H)-one]",inhibition @ 1 uM (% of cntls),[2],81.5 % of cntls
"COc1cccc2[nH]c(-c3ccc(-c4ccc(OC(F)(F)F)cc4)nc3)c(C)c(=O)c12 [SCR-04-04, 5-Methoxy-3-methyl-2-(6-(4-(trifluoromethoxy)phenyl)pyridin-3-yl)quinolin-4(1H)-one]",inhibition @ 1 uM (% of cntls),[2],65.4 % of cntls
"O=c1cc(-c2cnn(Cc3ccc(OC(F)(F)F)cc3)c2)[nH]c2ccccc12 [WDH-1W-5, 2-(1-(4-(Trifluoromethoxy)benzyl)-1H-pyrazol-4-yl)quinolin-4(1H)-one]",activity at 5 µM,M. tuberculosis H37Rv,61.3%
